The results in this text go back to patent US20200016062A1, “TERMINALIA FERDINANDIANA LEAF EXTRACT AND PRODUCTS CONTAINING EXTRACT OF TERMINALIA FERDINANDIANA LEAF” (RISING PHOENIX INDUSTRIES PTY LTD, priority 2016, published 2020).

In this test the test system is C. jeikeium. Put plainly: modified disc diffusion assay, C. jeikeium. The class given is cell-based, Corynebacterium jeikeium. As to conditions: 10 μL extract per disc; vancomycin 5 μg disc; aerobic, 37° C., 24 hours. As for the experimental part:
Evaluation of antibacterial activity screening of the T. ferdinandiana fruit and leaf extracts was assessed using a modified disc diffusion assay.
100 μL of each individual bacteria (C. jeikeium, B. linens, P. acnes and S. epidermidis) was grown separately in 20 mL of the appropriate broth until an approximate count of 10^8 cells/mL was reached.
A volume of 100 μL of each bacterial suspension was spread onto agar plates and the extracts tested for antibacterial activity using 5 mm sterilised filter paper discs.
C. jeikeium cultures were spread onto nutrient agar plates supplemented with 300 μL Tween 80/L of agar.
Discs were infused with 10 μL of the individual extracts, allowed to dry and placed onto inoculated plates. The plates were left to stand at 4° C. for 2 hours before incubation.
Plates inoculated with B. linens, S. epidermidis or C. jeikeium cultures were incubated aerobically at 37° C. for 24 hours.
The diameters of the inhibition zones were measured to the closest whole millimetre. Each assay was completed in at least triplicate. […]
The ability of T. ferdinandiana leaf and fruit extracts to inhibit the growth of bacterial species under test associated with the production of body and foot odours were assessed. […]

Structures are written as SMILES.

Regarding `CN[C@H](CC(C)C)C(=O)N[C@H]1C(=O)N[C@@H](CC(N)=O)C(=O)N[C@H]2C(=O)N[C@H]3C(=O)N[C@H](C(=O)N[C@H](C(=O)O)c4cc(O)cc(O)c4-c4cc3ccc4O)[C@H](O)c3ccc(c(Cl)c3)Oc3cc2cc(c3O[C@@H]2O[C@H](CO)[C@@H](O)[C@H](O)[C@H]2O[C@H]2C[C@](C)(N)[C@H](O)[C@H](C)O2)Oc2ccc(cc2Cl)[C@H]1O` [vancomycin], the “growth inhibitory activity against C. jeikeium (zones of inhibition)” value was “good inhibitor”.
